Consider one substance from patent publication US10632149B2, “Drug based on maghemite for simultaneous reduction of gastrointestinal sodium resorption and phosphate resorption” (CHARITÉ-UNIVERSITAETSMEDIZIN BERLIN, priority 2014, dated 2020).

This series deals with healthy rats. The settings on record: rat, in vivo.

Method: Male rats of the breed Sprague Dawley from Charles River were used at the beginning of the experiment with weight of 200 g (n=8) per group listed below. […] Then for another 4 weeks (week 2-5), the feed mentioned above ad libitum with active substance additive. On the last day of each experiment week, the animals were kept individually in a metabolic cage for 24 hours (day 6 to day 7). Feces and urine were collected. Blood was obtained only on the last collection day. Blood and urine samples were examined by Synlab GmbH.
The groups received as follows from week 2-5 additives per 100 g feed Group A control—no additives
Group B adjuvants—addition of 0.2 g of mannitol and each 0.9 g of inulin and gum arabic
Group D Velphoro®—based on iron as an additive to the feed 250 mg of iron
Group E Fosrenol®—based on lanthanum as an additive to the feed 250 mg lanthanum
Group F Renvela®—based on Sevelamer carbonate 500 mg

Take sucroferric oxyhydroxide [Velphoro®]: the “Feces excretion 24 hours Weight” value came out at 17.1 ± 6.2 g and the “Urine volumes 24 hours” value is 16.1 ± 3.6 mL.
